Measurements taken from patent US7951942B2, “Crystals of phenylalanine derivatives and production methods thereof” (Ajinomoto Co., Inc., priority 2003, dated 2011).
Values belong to the compound of their own block, whether it stands above or below them.

Experiments:
[1] = Temperature changes of the powder X-ray diffraction patterns (crystal transition, T-G curves); type: physicochemical; conditions: from T-G curves (FIG. 10)
Procedure: Measurement of the Temperature Changes of the Powder X-Ray Diffraction Patterns of the α-Type, γ-Type, ε-Type, and η-Type Crystals
• (1) The measuring method and conditions
The measurement was conducted in the same conditions as those of the above measurement of the powder X-ray diffraction patterns.

[2] = Water adsorption of the crystals (vapor adsorption isotherm); type: physicochemical; conditions: 25° C.
Procedure: The Measuring Method of the Water Adsorption of the Crystals (Creation of the Vapor Adsorption Isotherm)
• (1) The measuring method of water adsorption amount and conditions
100 mg of each of the above obtained α-type, γ-type and ε-type crystals were weighed and vacuum dried at 50° C. overnight. Then, under the constant temperature of 25° C., the water adsorption amount of the crystals was determined with a full automatic vapor adsorption measuring apparatus (BELSORP-18, BEL Japan, Inc.) (Mitsuiki et al., J. Agric. Food Chem., vol. 46, no. 9, pp. 3528-3534 (1998)). • (2) The measurement results

order of thermodynamic stability of crystal forms at room temperature ([1]; room temperature): α-type>η-type>γ-type>ε-type>θ-type
water adsorption (in words) ([2]; listed as α-type): low water adsorption
Compound: COC(=O)[C@H](Cc1ccc(-n2c(=O)c3cc(N(C)C)ccc3n(C)c2=O)cc1)NC(=O)c1c(Cl)cccc1Cl [α-type crystal]

water adsorption (in words) ([2]; listed as γ-type): particularly low water adsorption
Compound: COC(=O)[C@H](Cc1ccc(-n2c(=O)c3cc(N(C)C)ccc3n(C)c2=O)cc1)NC(=O)c1c(Cl)cccc1Cl [γ-type crystal]

water adsorption (in words) ([2]; listed as ε-type): particularly low water adsorption
Compound: COC(=O)[C@H](Cc1ccc(-n2c(=O)c3cc(N(C)C)ccc3n(C)c2=O)cc1)NC(=O)c1c(Cl)cccc1Cl [ε-type crystal]

thermodynamic stability in high temperature range ([1]; high temperature range): stably exists
Compound: COC(=O)[C@H](Cc1ccc(-n2c(=O)c3cc(N(C)C)ccc3n(C)c2=O)cc1)NC(=O)c1c(Cl)cccc1Cl [θ-type crystal]
